Experimental data as given in US12428406B2 (PMV Pharmaceuticals, Inc., priority 2019, dated 2025).

What follows are compounds tested against T1, p53 Y220C (Homo sapiens, UniProt P04637, Y220C) (assay: In vitro DNA binding activity assay (HTRF / TR-FRET): stabilization of p53 Y220C and increase of its DNA binding activity). Conditions: recombinant His-tagged p53 Y220C DNA binding domain (aa 94-312), biotin-labeled consensus DNA, incubated at 27° C. or 29° C. for 60 min.
T1 construct: The recombinant protein was a truncation mutant containing only amino acids 94-312 of p53; made in house; host or cells: E. coli
Format: biochemical
Summary of the method: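 E. coli His-p53 Y220C + biotin consensus DNA; anti-His-APC/SA-Eu TR-FRET. SC150 vs no-compound.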

T1 sequence (P04637 94-312, change not shown): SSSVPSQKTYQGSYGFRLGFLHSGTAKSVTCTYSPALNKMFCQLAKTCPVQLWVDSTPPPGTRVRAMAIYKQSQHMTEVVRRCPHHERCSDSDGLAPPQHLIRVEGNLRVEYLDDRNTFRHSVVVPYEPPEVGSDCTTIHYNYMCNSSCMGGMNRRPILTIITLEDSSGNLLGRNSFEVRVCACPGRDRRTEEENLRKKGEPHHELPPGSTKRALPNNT

Structure (SMILES) | SC150 (concentration of the compound required to increase the DNA binding activity by 50%)
CNC(=O)c1ccc(NCC#Cc2cc3c(NC4CCN(CC(O)COC)CC4)cccc3n2CC(F)(F)F)c(OCCC#N)c1 (stereo not shown) [Compound 659A, 3-(2-cyanoethoxy)-4-{[3-(4-{[1-(2-hydroxy-3-methoxypropyl)piperidin-4-yl]amino}-1-(2,2,2-trifluoroethyl)-1H-indol-2-yl)prop-2-yn-1-yl]amino}-N-methylbenzamide] | + (+ = 0 μM ≤ SC150 < 0.05 μM)
COc1cc(S(C)(=O)=O)cc(F)c1NCC#Cc1cc2c(NC3CCN(C)CC3)cccc2n1CC(F)(F)F [Compound 519A] | ++++ (++++ = 0.2 μM ≤ SC150 < 1 μM)
COCCN(C)[C@H]1CC[C@H](Nc2cccc3c2cc(C#CCNc2ccc(S(N)(=O)=O)cc2OCC#N)n3CC(F)(F)F)CC1 [Compound 164A, 3-(cyanomethoxy)-4-{[3-(4-{[(1R,4R)-4-[(2-methoxyethyl) (methyl)amino]cyclo-hexyl]amino}-1-(2,2,2-trifluoroethyl)-1H-indol-2-yl)prop-2-yn-1-yl]amino}benzene-1-sulfonamide] | + (+ = 0 μM ≤ SC150 < 0.05 μM)
COCC(O)CN1CCC(Nc2cccc3c2cc(C#CCNc2ccc(C(=O)NC(C)C)cc2OC)n3CC(F)(F)F)CC1 (stereo not shown) [Compound 633A, 4-{[3-(4-{[1-(2-hydroxy-3-methoxypropyl)piperidin-4-yl]amino}-1-(2,2,2-trifluoroethyl)-1H-indol-2-yl)prop-2-yn-1-yl]amino}-3-methoxy-N-(propan-2-yl)benzamide] | + (+ = 0 μM ≤ SC150 < 0.05 μM)
CCC(=O)OC(COC)CN1CCC(Nc2cccc3c2cc(C#CCNc2ccc(C(=O)NC)cc2OC)n3CC(F)(F)F)CC1 (stereo not shown) [Compound 657A, 1-methoxy-3-(4-{[2-(3-{[2-methoxy-4-(methylcarbamoyl)phenyl]amino}prop-1-yn-1-yl)-1-(2,2,2-trifluoroethyl)-1lH-indol-4-yl]amino}piperidin-1-yl)propan-2-yl propanoate] | + (+ = 0 μM ≤ SC150 < 0.05 μM)
CCN(CC)[C@H]1CC[C@H](Nc2cccc3c2cc(C#CCNc2ccc(S(N)(=O)=O)cc2OC)n3CC(F)(F)F)CC1 [Compound 146A, 3-methoxy-4-{[3-(4-{[(1R,4R)-4-(diethyl-amino)cyclohexyl]amino}-1-(2,2,2-trifluoroethyl)-1H-indol-2-yl)prop-2-yn-1-yl]amino}benzene-1-sulfonamide] | + (+ = 0 μM ≤ SC150 < 0.05 μM)
COc1cc(S(N)(=O)=O)ccc1NCC#Cc1cc2c(N[C@H]3CCN[C@@H](C)C3)cccc2n1CC(F)(F)F [Compound 464A, 3-methoxy-4-{[3-(4-{[(2S,4S)-2-methylpiperidin-4-yl]amino}-1-(2,2,2-trifluoroethyl)-1H-indol-2-yl)prop-2-yn-1-yl]amino} benzene-1-sulfonamide] | + (+ = 0 μM ≤ SC150 < 0.05 μM)
COc1cc(C(=O)O)ccc1NCC#Cc1cc2c(N[C@H]3CCN(CC(=O)N(C)C)C[C@H]3F)cccc2n1CC(F)(F)F [Compound 927A, 4-{[3-(4-{[(3R,4S)-1-[(dimethylcarbamoyl)methyl]-3-fluoropiperidin-4-yl]amino}-1-(2,2,2-trifluoroethyl)-1H-indol-2-yl)prop-2-yn-1-yl]amino}-3-methoxybenzoic acid] | + (+ = 0 μM ≤ SC150 < 0.05 μM)
COCC(O)CN1CCC(Nc2cccc3c2cc(C#CCNc2ccc(S(C)(=O)=O)cc2OC)n3CCF)CC1 (stereo not shown) [Compound 698A, 1-(4-{[1-(2-fluoroethyl)-2-{3-[(4-methanesulfonyl-2-methoxyphenyl)amino]prop-1-yn-1-yl}-1H-indol-4-yl]amino}piperidin-1-yl)-3-methoxypropan-2-ol] | + (+ = 0 μM ≤ SC150 < 0.05 μM)
COc1cc(C(N)=O)c(F)cc1NCC#Cc1cc2c(NC3CCN(C)CC3)cccc2n1CC(F)(F)F [Compound 514A, 2-fluoro-5-methoxy-4-[(3-{4-[(1-methylpiperidin-4-yl)amino]-1-(2,2,2-trifluoroethyl)-1H-indol-2-yl}prop-2-yn-1-yl)amino]benzamide] | + (+ = 0 μM ≤ SC150 < 0.05 μM)
CNC(=O)c1ccc(NCC#Cc2cc3c(N[C@H]4CCN(C)C[C@@H]4F)cccc3n2CC(F)(F)F)c(OC)c1 (racemic) [Compound 785A, rac-4-{[3-(4-{[(3R,4R)-3-fluoro-1-methylpiperidin-4-yl]amino}-1-(2,2,2-trifluoroethyl)-1H-indol-2-yl)prop-2-yn-1-yl]amino}-3-methoxy-N-methylbenzamide] | + (+ = 0 μM ≤ SC150 < 0.05 μM)
COCC(CN1CCC(Nc2cccc3c2cc(C#CCNc2ccc(S(N)(=O)=O)cc2OC)n3CC(F)(F)F)CC1)OC(=O)C(C)C (stereo not shown) [Compound 604A, 1-methoxy-3-{4-[(2-{3-[(2-methoxy-4-sulfamoylphenyl)amino]prop-1-yn-1-yl}-1-(2,2,2-trifluoroethyl)-1H-indol-4-yl)amino]piperidin-1-yl}propan-2-yl 2-methylpropanoate] | + (+ = 0 μM ≤ SC150 < 0.05 μM)
CNC(=O)c1ccc(NCC#Cc2cc3c(N[C@H]4CC[C@@H](N)CC4)cccc3n2CC(F)(F)F)c(OC)c1 [Compound 25A, 3-methoxy-N-methyl-4-{[3-(4-{[(1S,4S)-4-aminocyclohexyl]amino}-1-(2,2,2-trifluoroethyl)-1H-indol-2-yl)prop-2-yn-1-yl]amino}benzamide] | + (+ = 0 μM ≤ SC150 < 0.05 μM)
CNC(=O)c1ccc(NCC#Cc2cc3c(NC4CCN(CC5COC(=O)O5)CC4)cccc3n2CC(F)(F)F)c(OC)c1 (stereo not shown) [Compound 762A, 3-methoxy-N-methyl-4-({3-[4-({1-[(2-oxo-1,3-dioxolan-4-yl)methyl]piperidin-4-yl}amino)-1-(2,2,2-trifluoroethyl)-1H-indol-2-yl]prop-2-yn-1-yl}amino)benzamide] | + (+ = 0 μM ≤ SC150 < 0.05 μM)
COc1cc(S(C)(=O)=O)ccc1NCC#Cc1cc2c(NC3CCN(CC4COC(=O)O4)CC3)cccc2n1CC(F)(F)F (stereo not shown) [Compound 545A, 4-({4-[(2-{3-[(4-methanesulfonyl-2-methoxyphenyl)amino]prop-1-yn-1-yl}-1-(2,2,2-trifluoroethyl)-1H-indol-4-yl)amino]piperidin-1-yl}methyl)-1,3-dioxolan-2-one] | + (+ = 0 μM ≤ SC150 < 0.05 μM)
COc1cc(S(N)(=O)=O)ccc1NCC#Cc1cc2c(N[C@H]3CC[C@H](N4CC[S+]([O-])CC4)CC3)cccc2n1CC(F)(F)F [Compound 370A, 3-methoxy-4-{[3-(4-{[(1R,4R)-4-(1-oxo-1λ^4-thiomorpholin-4-yl)cyclohexyl]amino}-1-(2,2,2-trifluoro-ethyl)-1H-indol-2-yl)prop-2-yn-1-yl]amino} benzene-1-sulfonamide] | + (+ = 0 μM ≤ SC150 < 0.05 μM)
CNC(=O)c1ccc(NCC#Cc2cc3c(N[C@H]4CC[C@@H](N5CC6CC(C5)O6)CC4)cccc3n2CC(F)(F)F)c(OC)c1 [Compound 403A, 3-methoxy-N-methyl-4-{[3-(4-{[(1S,4S)-4-{6-oxa-3-azabicyclo[3.1.1]heptan-3-yl}cyclohexyl]amino}-1-(2,2,2-trifluoroethyl)-1H-indol-2-yl)prop-2-yn-1-yl]amino}benzamide] | ++ (++ = 0.05 μM ≤ SC150 < 0.1 μM)
COc1cc(S(=O)(=O)N(CCO)CCO)ccc1NCC#Cc1cc2c(N[C@H]3CC[C@H](N(C)C)CC3)cccc2n1CC(F)(F)F [Compound 70A, N,N-bis(2-hydroxyethyl)-3-methoxy-4-{[3-(4-{[(1R,4R)-4-(dimethyl-amino)cyclohexyl]amino}-1-(2,2,2-trifluoroethyl)-1H-indol-2-yl)prop-2-yn-1-yl]amino}benzene-1-sulfonamide] | + (+ = 0 μM ≤ SC150 < 0.05 μM)
COc1cc(S(N)(=O)=O)ccc1NCC#Cc1cc2c(NCC(N)=O)cccc2n1CC(F)(F)F [Compound 3A, 2-[(2-{3-[(2-methoxy-4-sulfamoylphenyl)amino]prop-1-yn-1-yl}-1-(2,2,2-trifluoroethyl)-1H-indol-4-yl)amino]acetamide] | ++++ (++++ = 0.2 μM ≤ SC150 < 1 μM)
N#CCOc1cc(S(N)(=O)=O)ccc1NCC#Cc1cc2c(N[C@H]3CC[C@H](N4CC5(CCOCC5)C4)CC3)cccc2n1CC(F)(F)F [Compound 299A, 3-(cyanomethoxy)-4-{[3-(4-{[(1R,4R)-4-{7-oxa-2-azaspiro[3.5]nonan-2-yl}cyclo-hexyl]amino}-1-(2,2,2-trifluoroethyl)-1H-indol-2-yl)prop-2-yn-1-yl]amino}benzene-1-sulfonamide] | + (+ = 0 μM ≤ SC150 < 0.05 μM)
CNC(=O)c1ccc(NCC#Cc2cc3c(N[C@H]4CC[C@@](C)(O)CC4)cccc3n2CC(F)(F)F)c(OC)c1 [Compound 32A, 3-methoxy-N-methyl-4-{[3-(4-{[(1S,4S)-4-hydroxy-4-methylcyclohexyl]amino}-1-(2,2,2-trifluoroethyl)-1H-indol-2-yl)prop-2-yn-1-yl]amino}benzamide] | + (+ = 0 μM ≤ SC150 < 0.05 μM)
COc1cc(S(=O)(=O)N(C)CCN(C)C)ccc1NCC#Cc1cc2c(NC3CCS(=O)(=O)CC3)cccc2n1CC(F)(F)F [Compound 1043A, N-[2-(dimethylamino)ethyl]-4-[(3-{4-[(1,1-dioxo-1λ^6-thian-4-yl)amino]-1-(2,2,2-trifluoroethyl)-1H-indol-2-yl}prop-2-yn-1-yl)amino]-3-methoxy-N-methylbenzene-1-sulfonamide] | + (+ = 0 μM ≤ SC150 < 0.05 μM)
